From ChEMBL document CHEMBL1201862, “PubChem BioAssay data set” (2004)
The source made the active and inactive calls.

Experiments:
Hexokinase = target: T1, Hexokinase (Trypanosoma brucei, UniProt Q38C41); test: Confirmation assay for inhibitors of Trypanosoma brucei hexokinase 1-Analogue-first series. [Related pubchem assays (depositor defined):AID1430, AID1632, AID2516, AID2560, AID2579, AID2600, AID449725, AID492951]; type: functional
T1 sequence (Q38C41 whole entry): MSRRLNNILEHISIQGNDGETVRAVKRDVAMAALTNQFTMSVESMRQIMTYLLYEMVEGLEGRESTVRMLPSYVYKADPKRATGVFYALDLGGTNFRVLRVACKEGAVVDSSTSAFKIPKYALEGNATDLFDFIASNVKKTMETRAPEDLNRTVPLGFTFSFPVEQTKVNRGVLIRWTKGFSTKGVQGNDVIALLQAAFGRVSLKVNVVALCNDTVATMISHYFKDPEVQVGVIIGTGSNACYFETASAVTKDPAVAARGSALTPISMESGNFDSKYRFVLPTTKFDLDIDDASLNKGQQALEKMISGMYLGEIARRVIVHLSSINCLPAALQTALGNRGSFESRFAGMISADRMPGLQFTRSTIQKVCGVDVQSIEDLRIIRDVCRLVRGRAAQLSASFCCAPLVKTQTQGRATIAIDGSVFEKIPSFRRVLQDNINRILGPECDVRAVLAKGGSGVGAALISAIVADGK

[1] = target: T2, Voltage-gated N-type calcium channel alpha-1B subunit/Amyloid beta A4 precursor protein-binding family A member 1 (Homo sapiens, UniProt Q00975+Q02410); type: protein assay
T2 sequence (Q00975 whole entry): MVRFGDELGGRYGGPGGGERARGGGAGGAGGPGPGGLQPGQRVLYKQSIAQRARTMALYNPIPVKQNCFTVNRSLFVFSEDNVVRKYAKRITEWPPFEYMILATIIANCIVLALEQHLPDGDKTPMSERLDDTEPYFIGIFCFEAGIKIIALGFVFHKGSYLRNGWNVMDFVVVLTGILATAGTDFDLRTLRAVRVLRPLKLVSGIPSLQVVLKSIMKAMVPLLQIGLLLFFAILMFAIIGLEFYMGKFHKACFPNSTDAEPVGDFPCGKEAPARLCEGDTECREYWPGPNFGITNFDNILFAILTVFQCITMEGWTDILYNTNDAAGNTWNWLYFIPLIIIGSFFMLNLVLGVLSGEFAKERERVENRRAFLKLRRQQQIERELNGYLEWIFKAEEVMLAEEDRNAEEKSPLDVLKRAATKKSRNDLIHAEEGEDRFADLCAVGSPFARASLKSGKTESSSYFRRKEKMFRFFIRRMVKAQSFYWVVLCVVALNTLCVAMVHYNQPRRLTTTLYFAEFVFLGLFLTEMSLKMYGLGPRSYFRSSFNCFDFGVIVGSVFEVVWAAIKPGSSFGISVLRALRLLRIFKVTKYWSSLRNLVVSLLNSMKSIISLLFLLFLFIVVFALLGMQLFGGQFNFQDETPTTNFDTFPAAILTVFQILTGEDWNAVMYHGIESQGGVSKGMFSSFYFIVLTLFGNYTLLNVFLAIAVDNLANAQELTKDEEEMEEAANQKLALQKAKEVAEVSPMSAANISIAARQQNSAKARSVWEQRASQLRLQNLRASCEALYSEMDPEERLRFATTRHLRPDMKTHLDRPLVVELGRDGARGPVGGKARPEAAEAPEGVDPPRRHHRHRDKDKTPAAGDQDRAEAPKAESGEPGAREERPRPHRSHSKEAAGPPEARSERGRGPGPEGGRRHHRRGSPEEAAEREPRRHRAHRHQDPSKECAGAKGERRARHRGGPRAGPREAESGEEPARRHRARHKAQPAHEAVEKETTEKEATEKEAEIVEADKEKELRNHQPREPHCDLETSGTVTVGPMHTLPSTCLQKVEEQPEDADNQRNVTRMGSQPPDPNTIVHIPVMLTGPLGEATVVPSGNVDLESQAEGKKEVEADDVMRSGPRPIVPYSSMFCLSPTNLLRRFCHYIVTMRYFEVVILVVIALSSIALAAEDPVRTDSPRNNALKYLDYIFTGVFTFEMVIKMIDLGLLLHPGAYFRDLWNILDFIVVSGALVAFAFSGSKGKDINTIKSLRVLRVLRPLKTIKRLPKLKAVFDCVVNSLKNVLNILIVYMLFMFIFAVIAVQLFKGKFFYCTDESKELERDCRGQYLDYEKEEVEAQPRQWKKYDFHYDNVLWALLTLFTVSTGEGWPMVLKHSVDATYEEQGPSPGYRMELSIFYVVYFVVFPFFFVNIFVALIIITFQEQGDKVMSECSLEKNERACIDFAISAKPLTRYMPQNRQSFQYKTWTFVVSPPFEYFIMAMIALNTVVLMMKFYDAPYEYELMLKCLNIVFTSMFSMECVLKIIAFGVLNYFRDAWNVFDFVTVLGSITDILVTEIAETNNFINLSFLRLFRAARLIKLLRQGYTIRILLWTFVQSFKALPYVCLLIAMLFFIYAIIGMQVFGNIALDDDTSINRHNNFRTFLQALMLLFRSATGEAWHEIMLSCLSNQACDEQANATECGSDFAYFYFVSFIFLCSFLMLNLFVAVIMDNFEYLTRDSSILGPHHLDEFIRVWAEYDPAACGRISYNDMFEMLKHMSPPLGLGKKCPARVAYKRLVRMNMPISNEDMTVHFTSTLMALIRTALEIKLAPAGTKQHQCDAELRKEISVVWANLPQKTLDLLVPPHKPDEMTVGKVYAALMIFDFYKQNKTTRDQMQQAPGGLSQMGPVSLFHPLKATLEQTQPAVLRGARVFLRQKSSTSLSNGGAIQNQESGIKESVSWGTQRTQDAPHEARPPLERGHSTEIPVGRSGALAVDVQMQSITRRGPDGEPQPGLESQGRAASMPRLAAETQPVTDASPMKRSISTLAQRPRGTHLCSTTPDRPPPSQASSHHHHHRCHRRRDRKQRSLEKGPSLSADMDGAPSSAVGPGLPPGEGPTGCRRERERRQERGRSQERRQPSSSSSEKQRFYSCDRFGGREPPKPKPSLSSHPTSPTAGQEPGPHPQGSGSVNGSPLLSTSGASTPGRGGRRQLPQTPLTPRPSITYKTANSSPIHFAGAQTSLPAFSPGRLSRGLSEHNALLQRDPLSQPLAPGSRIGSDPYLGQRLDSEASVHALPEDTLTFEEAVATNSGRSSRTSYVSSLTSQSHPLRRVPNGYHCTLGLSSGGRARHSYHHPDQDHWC
T2 sequence (Q02410 whole entry): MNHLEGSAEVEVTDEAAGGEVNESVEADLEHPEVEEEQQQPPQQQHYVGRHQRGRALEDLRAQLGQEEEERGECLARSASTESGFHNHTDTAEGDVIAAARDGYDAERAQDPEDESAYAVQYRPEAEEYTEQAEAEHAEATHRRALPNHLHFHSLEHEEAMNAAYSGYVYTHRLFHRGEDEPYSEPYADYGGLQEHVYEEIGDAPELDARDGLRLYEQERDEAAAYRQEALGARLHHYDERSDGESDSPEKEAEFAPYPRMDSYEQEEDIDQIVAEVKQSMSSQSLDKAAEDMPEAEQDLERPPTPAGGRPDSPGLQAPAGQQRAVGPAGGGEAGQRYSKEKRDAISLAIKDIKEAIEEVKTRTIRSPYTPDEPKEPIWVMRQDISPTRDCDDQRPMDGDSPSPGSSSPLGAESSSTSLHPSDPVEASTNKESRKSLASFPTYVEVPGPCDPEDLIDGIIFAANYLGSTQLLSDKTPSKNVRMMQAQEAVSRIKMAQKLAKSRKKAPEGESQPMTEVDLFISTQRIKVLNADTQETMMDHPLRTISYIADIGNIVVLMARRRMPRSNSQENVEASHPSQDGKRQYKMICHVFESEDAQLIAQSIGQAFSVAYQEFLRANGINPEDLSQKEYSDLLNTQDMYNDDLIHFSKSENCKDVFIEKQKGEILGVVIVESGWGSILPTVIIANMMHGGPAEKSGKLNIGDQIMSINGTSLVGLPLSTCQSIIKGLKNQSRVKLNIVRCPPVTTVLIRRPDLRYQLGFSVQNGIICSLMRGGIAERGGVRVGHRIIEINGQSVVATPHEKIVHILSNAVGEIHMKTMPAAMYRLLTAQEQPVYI

[2] = target: T2, Voltage-gated N-type calcium channel alpha-1B subunit/Amyloid beta A4 precursor protein-binding family A member 1; type: protein assay; remark: listed apart in the source
[3] = target: T3, C-C chemokine receptor type 6 (Homo sapiens, UniProt P51684); test: CCR6 receptor antagonists, dose response, cell-based, luminescent beta-arrestin readout (AID 504728); type: functional
T3 sequence (P51684 whole entry): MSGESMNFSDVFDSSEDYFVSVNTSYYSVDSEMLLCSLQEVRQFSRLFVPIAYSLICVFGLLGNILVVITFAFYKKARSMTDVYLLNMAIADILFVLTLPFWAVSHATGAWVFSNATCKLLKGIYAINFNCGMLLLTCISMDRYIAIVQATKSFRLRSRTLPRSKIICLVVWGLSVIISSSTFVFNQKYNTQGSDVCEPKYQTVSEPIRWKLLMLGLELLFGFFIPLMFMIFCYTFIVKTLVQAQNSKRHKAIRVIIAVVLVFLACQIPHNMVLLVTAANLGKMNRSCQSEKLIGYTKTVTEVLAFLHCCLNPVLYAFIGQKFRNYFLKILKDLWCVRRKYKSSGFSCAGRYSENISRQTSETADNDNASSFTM

Beta-galactosidase = Beta-galactosidase (Escherichia coli, UniProt Q8VNN2); test: beta-galactosidase enzyme inhibitors and activators, dose response, artefact control for CCR6 antagonist project, biochemical, E. coli enzyme, set 3 (AID 504712); type: functional
Sequence of Beta-galactosidase (Q8VNN2 whole entry): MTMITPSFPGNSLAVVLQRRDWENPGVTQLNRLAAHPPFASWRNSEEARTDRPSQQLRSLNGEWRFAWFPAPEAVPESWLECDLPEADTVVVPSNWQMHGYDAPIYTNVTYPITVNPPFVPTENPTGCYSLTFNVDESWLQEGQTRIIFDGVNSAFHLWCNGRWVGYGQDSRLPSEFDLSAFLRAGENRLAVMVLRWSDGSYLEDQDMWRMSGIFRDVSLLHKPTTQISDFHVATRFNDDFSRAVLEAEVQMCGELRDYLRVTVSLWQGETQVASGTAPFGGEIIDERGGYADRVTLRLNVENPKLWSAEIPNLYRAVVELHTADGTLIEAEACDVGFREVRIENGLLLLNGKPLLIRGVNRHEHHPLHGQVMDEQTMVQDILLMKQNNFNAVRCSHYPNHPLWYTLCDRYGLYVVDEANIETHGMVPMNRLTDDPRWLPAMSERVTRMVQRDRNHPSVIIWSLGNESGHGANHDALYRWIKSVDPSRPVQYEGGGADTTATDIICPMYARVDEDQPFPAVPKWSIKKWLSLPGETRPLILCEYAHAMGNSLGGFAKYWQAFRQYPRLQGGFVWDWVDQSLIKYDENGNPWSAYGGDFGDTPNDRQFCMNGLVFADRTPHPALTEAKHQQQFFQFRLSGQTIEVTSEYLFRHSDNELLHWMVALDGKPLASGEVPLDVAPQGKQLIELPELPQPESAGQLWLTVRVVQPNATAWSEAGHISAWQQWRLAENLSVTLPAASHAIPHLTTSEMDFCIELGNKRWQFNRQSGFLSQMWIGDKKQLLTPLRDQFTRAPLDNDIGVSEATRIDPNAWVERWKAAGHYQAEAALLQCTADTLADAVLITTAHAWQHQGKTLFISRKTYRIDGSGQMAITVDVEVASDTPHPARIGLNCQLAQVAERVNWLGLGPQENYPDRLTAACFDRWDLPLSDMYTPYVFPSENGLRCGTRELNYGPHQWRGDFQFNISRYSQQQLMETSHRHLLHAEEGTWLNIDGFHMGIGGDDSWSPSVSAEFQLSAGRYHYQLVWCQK

[4] = Shn3 3'UTR reporter inhibitors, dose response, cell-based, Clone20 osteoblasts, firefly luciferase, cherry-picked (AID 624132); type: functional;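 further: firefly luciferase luminescence from reporter carrying the Shn3 3'UTR in osteoblasts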
[5] = HepG2 cell cytotoxicity, dose response, cytotoxicity control for Shn3 inhibitor project, CellTiter-Glo, cherry-picked (AID 624134); type: functional, cell-based
[6] = control 3'UTR Renilla luciferase suppression, dose response, counter-screen for Shn3 inhibitor project, cell-based, Clone20-Shn3RL, cherry-picked (AID 624133); type: functional
[7] = target: Photoreceptor-specific nuclear receptor (Homo sapiens, UniProt Q9Y5X4); type: functional, cell-based;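 further: CHO-S cells with Gal4-NCOR and VP16-NR2E3 two-hybrid luciferase reporter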
Sequence of Photoreceptor-specific nuclear receptor (Q9Y5X4 whole entry, the tested form may be a part): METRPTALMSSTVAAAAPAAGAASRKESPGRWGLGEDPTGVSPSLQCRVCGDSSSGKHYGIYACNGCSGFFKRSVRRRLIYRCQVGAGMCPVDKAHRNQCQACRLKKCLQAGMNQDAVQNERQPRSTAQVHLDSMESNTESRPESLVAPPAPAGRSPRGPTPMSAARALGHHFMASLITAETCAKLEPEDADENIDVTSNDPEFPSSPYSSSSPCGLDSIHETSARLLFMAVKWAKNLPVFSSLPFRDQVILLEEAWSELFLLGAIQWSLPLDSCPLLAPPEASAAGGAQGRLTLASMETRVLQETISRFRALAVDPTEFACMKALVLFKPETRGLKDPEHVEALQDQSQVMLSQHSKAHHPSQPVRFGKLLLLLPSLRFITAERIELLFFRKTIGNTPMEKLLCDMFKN

Paired box protein Pax-8 = Paired box protein Pax-8 (Homo sapiens, UniProt Q06710); test: inhibitors of PAX8-driven TPO luciferase reporter, dose response, RMG-I cells, cherry-pick (AID 687027); type: functional, cell-based;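 further: luciferase reporter driven by Pax8 target thyroperoxidase promoter measured by SteadyGlo luminescence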
Sequence of Paired box protein Pax-8 (Q06710 whole entry): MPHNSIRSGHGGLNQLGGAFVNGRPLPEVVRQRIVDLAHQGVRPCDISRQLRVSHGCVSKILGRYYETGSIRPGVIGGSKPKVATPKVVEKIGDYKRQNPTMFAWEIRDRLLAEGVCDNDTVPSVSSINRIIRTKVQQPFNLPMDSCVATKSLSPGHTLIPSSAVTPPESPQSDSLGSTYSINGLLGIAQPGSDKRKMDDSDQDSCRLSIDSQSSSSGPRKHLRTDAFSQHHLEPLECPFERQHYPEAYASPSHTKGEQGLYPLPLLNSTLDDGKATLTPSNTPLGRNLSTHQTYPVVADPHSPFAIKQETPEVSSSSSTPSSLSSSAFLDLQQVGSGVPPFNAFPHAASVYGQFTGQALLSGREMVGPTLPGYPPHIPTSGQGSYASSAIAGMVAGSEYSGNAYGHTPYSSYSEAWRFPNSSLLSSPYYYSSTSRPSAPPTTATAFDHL

[8] = A549 cell cytotoxicity, dose response, cytotoxicity control, plate reader, cherry-pick, antagonist series (AID 743412); type: functional, cell-based
[9] = HepG2 cell cytotoxicity, dose response, cytotoxicity control, plate reader, cherry-pick, antagonist series (AID 743416); type: functional, cell-based
[10] = LGR2 antagonists, dose response, cell-based, HEK293, CRE-luciferase reporter, cherry pick, set 2 (AID 743343); type: functional;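 further: transfected cells were stimulated with diluted bursicon conditioned medium after compound addition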
[11] = MC4R antagonists, dose response, counter-screen for LGR2 antagonist project, cell-based, plate reader, cherry pick (AID 743444); type: functional;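 further: transfected HEK 293 cells stimulated with alpha-MSH peptide; potency of inhibitors of the alpha-MSH evoked signal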
[12] = HEK293 cell cytotoxicity, dose response, cytotoxicity control, plate reader, cherry-picked samples (AID 743446); type: functional, cell-based
[13] = target: T4, Acyl-homoserine lactone acylase PvdQ (Pseudomonas aeruginosa (strain LESB58), UniProt Q9I194); test: P. aeruginosa PvdQ acylase inhibitors, dose response, biochemical, fluorescence, plate reader and imaging, cherry-picks (AID 493231)
T4 sequence (Q9I194 whole entry): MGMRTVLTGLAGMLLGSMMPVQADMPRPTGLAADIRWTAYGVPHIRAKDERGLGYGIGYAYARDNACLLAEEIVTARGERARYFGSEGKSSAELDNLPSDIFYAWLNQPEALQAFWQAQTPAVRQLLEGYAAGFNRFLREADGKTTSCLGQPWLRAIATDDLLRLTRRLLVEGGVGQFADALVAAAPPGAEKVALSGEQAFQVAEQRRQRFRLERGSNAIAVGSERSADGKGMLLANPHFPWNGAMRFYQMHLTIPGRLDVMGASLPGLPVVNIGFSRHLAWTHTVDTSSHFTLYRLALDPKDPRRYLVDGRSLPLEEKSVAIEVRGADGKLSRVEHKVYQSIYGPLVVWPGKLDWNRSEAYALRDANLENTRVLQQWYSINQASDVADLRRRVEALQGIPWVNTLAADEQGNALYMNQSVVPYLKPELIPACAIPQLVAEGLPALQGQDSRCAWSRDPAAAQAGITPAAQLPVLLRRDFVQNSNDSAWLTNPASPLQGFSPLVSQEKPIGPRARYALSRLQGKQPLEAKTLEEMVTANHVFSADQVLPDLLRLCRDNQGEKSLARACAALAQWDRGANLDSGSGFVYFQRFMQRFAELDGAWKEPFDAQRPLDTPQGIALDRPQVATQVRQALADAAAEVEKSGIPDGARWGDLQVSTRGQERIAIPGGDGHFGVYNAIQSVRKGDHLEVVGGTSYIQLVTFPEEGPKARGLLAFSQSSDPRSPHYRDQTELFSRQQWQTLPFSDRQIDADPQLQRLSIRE

Aminopeptidase N = target: T5, Aminopeptidase N (Plasmodium falciparum FcB1/Columbia, UniProt O96935); test: P. falciparum M1AAP inhibitors, biochemical, fluorogenic H-Leu-NHMec substrate, 1536-well (AID 1445); set-up: species or system Plasmodium falciparum 3D7, 3D7
T5 sequence (O96935 whole entry): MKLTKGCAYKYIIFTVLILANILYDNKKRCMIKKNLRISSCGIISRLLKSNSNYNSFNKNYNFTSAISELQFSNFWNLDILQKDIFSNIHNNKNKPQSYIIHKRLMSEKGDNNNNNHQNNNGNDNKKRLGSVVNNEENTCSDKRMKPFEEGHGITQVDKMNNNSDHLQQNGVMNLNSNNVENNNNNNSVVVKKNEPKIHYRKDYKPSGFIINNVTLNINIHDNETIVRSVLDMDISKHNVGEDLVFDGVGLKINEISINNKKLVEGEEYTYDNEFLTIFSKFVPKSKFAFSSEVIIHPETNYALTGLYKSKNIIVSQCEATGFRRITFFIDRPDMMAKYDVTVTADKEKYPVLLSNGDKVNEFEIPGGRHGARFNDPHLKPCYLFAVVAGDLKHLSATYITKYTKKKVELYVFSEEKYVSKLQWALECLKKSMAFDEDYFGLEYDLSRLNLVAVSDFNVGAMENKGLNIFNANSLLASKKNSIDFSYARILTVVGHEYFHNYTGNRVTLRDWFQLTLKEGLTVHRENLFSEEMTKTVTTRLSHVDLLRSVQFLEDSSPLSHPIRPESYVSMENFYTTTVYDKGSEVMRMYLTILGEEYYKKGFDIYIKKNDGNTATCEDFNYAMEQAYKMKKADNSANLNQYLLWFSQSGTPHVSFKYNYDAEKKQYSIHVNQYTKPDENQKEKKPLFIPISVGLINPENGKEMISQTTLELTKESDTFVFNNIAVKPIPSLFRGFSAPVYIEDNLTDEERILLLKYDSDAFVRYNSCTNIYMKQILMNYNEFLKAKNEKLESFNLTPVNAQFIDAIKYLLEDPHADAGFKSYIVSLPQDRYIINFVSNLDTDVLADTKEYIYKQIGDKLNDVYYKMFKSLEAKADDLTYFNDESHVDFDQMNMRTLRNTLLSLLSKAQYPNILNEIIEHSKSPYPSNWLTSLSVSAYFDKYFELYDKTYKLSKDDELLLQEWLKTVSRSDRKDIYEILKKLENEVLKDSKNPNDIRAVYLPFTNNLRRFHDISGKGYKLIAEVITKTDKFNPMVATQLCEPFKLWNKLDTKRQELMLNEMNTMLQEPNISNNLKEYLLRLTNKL

CAAX prenyl protease 2 = target: T6, CAAX prenyl protease 2 (Saccharomyces cerevisiae S288c, UniProt Q03530); type: biochemical
T6 sequence (Q03530 whole entry): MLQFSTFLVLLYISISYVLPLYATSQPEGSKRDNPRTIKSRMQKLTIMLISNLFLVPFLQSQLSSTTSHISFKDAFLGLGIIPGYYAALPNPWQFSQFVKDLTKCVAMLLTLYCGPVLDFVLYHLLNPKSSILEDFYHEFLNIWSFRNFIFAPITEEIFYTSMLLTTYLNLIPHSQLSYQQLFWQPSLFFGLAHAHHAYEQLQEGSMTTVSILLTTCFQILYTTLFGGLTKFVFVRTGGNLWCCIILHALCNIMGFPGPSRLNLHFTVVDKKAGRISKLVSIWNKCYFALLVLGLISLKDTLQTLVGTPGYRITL

[14] = target: Heat shock protein HSP 90-alpha (Homo sapiens, UniProt P07900); type: functional, organism-based
[15] = target: T7, Corticotropin-releasing factor receptor 2/Corticotropin-releasing factor-binding protein (Homo sapiens, UniProt P24387+Q13324); test: Dose Response confirmation of uHTS hits for small molecule antagonists of the CRF-binding protein and CRF-R2 receptor complex.; type: functional; conditions: read-out: IC50_Mean
T7 sequence (Q13324 whole entry): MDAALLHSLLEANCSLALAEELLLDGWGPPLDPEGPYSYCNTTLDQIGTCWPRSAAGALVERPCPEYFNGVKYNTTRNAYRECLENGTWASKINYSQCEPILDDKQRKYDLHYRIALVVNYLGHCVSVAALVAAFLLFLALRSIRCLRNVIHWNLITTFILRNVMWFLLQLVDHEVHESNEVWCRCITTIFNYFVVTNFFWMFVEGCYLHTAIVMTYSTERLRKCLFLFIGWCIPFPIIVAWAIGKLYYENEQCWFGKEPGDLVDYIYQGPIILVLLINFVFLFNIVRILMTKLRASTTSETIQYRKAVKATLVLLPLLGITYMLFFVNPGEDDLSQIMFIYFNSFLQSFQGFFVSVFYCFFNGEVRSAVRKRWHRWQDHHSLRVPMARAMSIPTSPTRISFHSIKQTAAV
T7 sequence (P24387 whole entry): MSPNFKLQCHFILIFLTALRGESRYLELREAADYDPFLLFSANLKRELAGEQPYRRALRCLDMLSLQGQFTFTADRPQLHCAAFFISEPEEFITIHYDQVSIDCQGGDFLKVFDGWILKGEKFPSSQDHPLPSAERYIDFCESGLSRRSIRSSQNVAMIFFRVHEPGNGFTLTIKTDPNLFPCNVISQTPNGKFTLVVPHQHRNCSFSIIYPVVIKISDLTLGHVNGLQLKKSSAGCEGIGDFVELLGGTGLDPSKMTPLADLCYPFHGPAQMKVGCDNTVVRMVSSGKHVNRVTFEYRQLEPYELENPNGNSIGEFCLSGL

[16] = target: T7, Corticotropin-releasing factor receptor 2/Corticotropin-releasing factor-binding protein; test: activators of CRF receptor 2 with binding protein – uHTS hits, confirmation (AID 602473); type: functional; conditions: read-out: EC50_Mean

Cc1ccc(C(=O)Nc2cc(Cl)ccc2C(=O)O)cc1C
IC50 (Hexokinase): 10.7 µM (active)

COC(=O)c1ccc(/C=C2/SC(=S)N(CCCC(=O)Nc3ccc(O)cc3)C2=O)cc1
IC50 [1]: 35.4 µM (active)
IC50 [2]: > 50 µM (inactive)

CC(=O)Nc1ccc(Sc2ccc([N+](=O)[O-])o2)cc1
IC50 [3]: > 66.6 µM (inactive)
IC50 (Beta-galactosidase): > 66.6 µM (inactive)
AC50 [4]: 2.15 µM (active)
AC50 [5]: 20.6 µM (active)
AC50 [6]: 11.2 µM (active)
IC50 [7]: 2.72 µM (active)
AC50 (Paired box protein Pax-8): 7.36 µM (active)
AC50 [8]: 37 µM (active)
AC50 [9]: 13.8 µM (active)
AC50 [10]: 26.4 µM (active)
AC50 [11]: 22.7 µM (active)
AC50 [12]: 7.13 µM (active)

CCOC(=O)N1CCN(c2ccc(Cl)cc2)CC1
AC50 [13]: 7.18 µM (active)

CC(=O)O/C(=C1\CC2C3CC=C4CC(OC(C)=O)CCC4(C)C3CCC2(C)C1=O)C(F)(F)F (stereo not drawn)
IC50 [3]: > 66.6 µM (inactive)
IC50 (Beta-galactosidase): > 66.6 µM (inactive)

C/C=C\C=C/C(=O)Nc1cccc(C2=NOC3(C2)C[C@@H](C(N)=O)N(C(=O)/C=C/C=C\C)C3)c1 (stereo partly drawn)
IC50 [1]: 10.1 µM (active)
IC50 [2]: 4.01 µM (active)

CNC(=O)c1nc[nH]c1C(=O)N[C@@H](CC(C)C)C(=O)OC(C)(C)C
IC50 (Aminopeptidase N): 39.3 µM (active)

O=C(NC1CCS(=O)(=O)C1)c1cccc(Br)c1 (stereo not drawn)
AC50 [13]: 8.94 µM (active)

CC1CCN(C(=O)C2CCN(S(=O)(=O)c3ccc(-n4cnnn4)cc3)CC2)CC1
AC50 (CAAX prenyl protease 2): 22.8 µM (active)

O=C(Nc1cc(Cl)ccc1C(=O)O)c1ccc2ccccc2c1
IC50 (Hexokinase): 5.41 µM (active)

Fc1ccc(N2N=C(c3cccs3)CC2c2ccco2)c(F)c1 (stereo not drawn)
IC50 (Aminopeptidase N): 107 µM (active)

COc1ccc(/C=C2/CCC(CN3CCOCC3)C2=O)cc1 (stereo not drawn)
IC50 [3]: 21.1 µM (inactive)
IC50 (Beta-galactosidase): > 66.6 µM (inactive)
AC50 [14]: 0.902 µM (active)
IC50 [15]: > 47.1 µM (inactive)
EC50 [16]: > 53 µM (inactive)

CN(Cc1ccccc1)C(=O)Cn1sc2ccccc2c1=O
IC50 (Hexokinase): 7.87 µM (active)

COc1cccc(C(=O)CC(C#N)c2ccc(F)cc2)c1 (stereo not drawn)
AC50 [13]: 6.55 µM (active)

O=C1N=C(NS(=O)(=O)Cc2ccccc2)S/C1=C/c1cccc([N+](=O)[O-])c1
IC50 (Aminopeptidase N): 50.2 µM (active)
